Source: US11597725B2, “URAT1 inhibitor for promoting uric acid excretion” (JIANGSU ATOM BIOSCIENCE AND PHARMACEUTICAL CO., LTD., priority 2017, dated 2023)

Target: T1, hURAT1 (Homo sapiens, UniProt Q96S37)
T1 sequence (Q96S37 1-553): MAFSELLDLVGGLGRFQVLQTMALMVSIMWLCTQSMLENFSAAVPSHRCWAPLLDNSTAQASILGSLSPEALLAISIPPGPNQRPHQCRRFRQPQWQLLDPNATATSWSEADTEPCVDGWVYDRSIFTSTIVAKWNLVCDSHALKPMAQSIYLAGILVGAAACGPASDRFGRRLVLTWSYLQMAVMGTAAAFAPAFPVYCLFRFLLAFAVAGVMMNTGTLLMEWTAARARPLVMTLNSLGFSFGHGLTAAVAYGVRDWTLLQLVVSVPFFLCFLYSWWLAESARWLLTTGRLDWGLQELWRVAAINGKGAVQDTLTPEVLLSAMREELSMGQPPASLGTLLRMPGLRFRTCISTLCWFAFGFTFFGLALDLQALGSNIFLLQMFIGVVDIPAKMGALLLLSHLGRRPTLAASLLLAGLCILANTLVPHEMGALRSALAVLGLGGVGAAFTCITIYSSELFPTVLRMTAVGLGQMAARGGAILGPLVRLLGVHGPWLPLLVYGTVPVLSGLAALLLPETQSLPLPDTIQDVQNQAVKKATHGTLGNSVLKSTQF
Assay: Inhibition assay of uric acid transport in HEK293-hURAT1 transfection cell line (14C-uric acid uptake)
Format: cell-based
Settings: for inhibition at 0.5 µM: compound concentration 500 nM, HEK293-hURAT1 stable cells, 14C-uric acid, mean of three tests ±SD, read-out: Inhibition rate of uric acid transport, ±SD (%); for inhibitory effects of uric acid transport in HEK293-hURAT1 transfection cell line, in words: in comparison with control drug Zurampic at 500 nM
Method: Inhibition Assay of Uric Acid Transport for Compounds in HEK293-hURAT1 Transfection Cell Line
1. Construction of a HEK293 stable cell line with high expression of hURAT1:
The plasmid pCMV6-hURAT1 was transfected into HEK293 cells, then the stable strain was obtained by the G418 (final concentration of 500 μg/mL) resistance screening, which is the high expression of hURAT1 transporter membrane protein. It can be used for in vitro inhibition assay of uric acid transporter hURAT1 (Weaver Y M, Ehresman D J, Butenhoff J L, et al. Roles of rat renal organic anion transporters in transporting perfluorinated carboxylates with different chain lengths. Toxicological Sciences, 2009, 113(2):305-314).
2. Coating 24-well plate: to a coated 24-well plate was added 200 μl of 0.1 mg/mL poly-lysine per well and the plate was left overnight. Poly-lysine was removed from wells. The wells were cleaned thoroughly with steriled water and dried for use.
3. To the above coated 24-well plate was added HEK293-hURAT1 stable cells (2×10^5 cells per well). The cells were cultured at 37° C. under 5% CO2 for 3 days.
4. Preparation of HBSS buffer: the following reagents were weighed according to the final concentration of 125 mM sodium gluconate, 4.8 mM potassium gluconate, 1.3 mM calcium gluconate, 1.2 mM KH2PO4, 1.2 mM MgSO4, 5.6 mM glucose and 25 mM HEPES. Deionized water was added to reach the corresponding volume, and the solution was fully mixed to give HBSS (pH value: 7.4). The buffer was stored at −20° C. in a refrigerator.
5. At the day of experiment, the HBSS buffer was taken out of the refrigerator and warmed to 37° C. in a water bath. Taken out the 24-well plate with HEK293-hURAT1 stable cells, removed the culture medium and washed cells with HBSS, then add 160 μL of HBSS and 20 μL test compound per well. The final concentration of tested compound per well is 500 nM. The blank control well contains only 180 μL of HBSS without tested compound. The plate was placed at room temperature for 10 minutes.
6. To each well was added 20 μL of 50 μM ^14C-uric acid. The 24-well plate was placed at room temperature for 20 minutes.
7. The solution in each well was removed and the cells in each well were washed with the pre-cooled HBSS buffer. To each well was added 0.2 M NaOH to dissolve the cells. The solution containing cell fragments was collected and the appropriate amount of scintillation liquid was added. The radioisotope intensity of the ^14C-Uric acid (CPM value) was then detected by using PerkinElmer MicroBeta Trilux 1450 liquid scintillation analyzer.
8. In HEK293 transfected cell lines, the formula for calculating the inhabitation rate of uric acid transport for compounds was shown as below (Table 1), the CPM value of the tested compounds was represented by CPM(tested compound) and the CPM value of the blank control was represented by CPM(blank control). All tests were repeated three times, and the results were averaged and the standard deviation (SD) was calculated: Inhibition rate(%)(500 nM compound concentration)=(CPM(blank control)−CPM(test compound))/CPM(blank control)×100%

inhibition at 0.5 µM | inhibitory effects of uric acid transport in HEK293-hURAT1 transfection cell line, in words | Compound
53.4 ± 4.54% | very good inhibitory effects | CCc1nc2n(c1C(=O)c1cc(Br)c(O)c(Br)c1)CCCC2 [Compound 5, (3,5-dibromo-4-hydroxyphenyl)(2-ethyl-5,6,7,8-tetrahydroimidazo[1,2-a]pyridine-3-yl)methanone]
47.5 ± 3.12% | very good inhibitory effects | [2H]C1c2nc(CC)c(C(=O)c3cc(Br)c(O)c(Br)c3)n2C([2H])C([2H])([2H])C1[2H] (stereo not shown) [Compound 10, (3,5-dibromo-4-hydroxyphenyl)(5,6,6,7,8-pentadeuterio-2-ethyl-5,6,7,8-tetrahydroimidazo[1,2-a]pyridin-3-yl)methanone]
47.46 ± 0.14% | very good inhibitory effects | CCc1nc2n(c1C(=O)c1cc(Br)c(O)c(C#N)c1)CCCC2 [Compound 17, 3-bromo-5-(2-ethyl-5,6,7,8-tetrahydroimidazo[1,2-a]pyridine-3-carbonyl)-2-hydroxybenzonitrile]
47.5 ± 1.65% | very good inhibitory effects | CCc1nc2n(c1C(=O)c1cc(Br)c(O)c(Br)c1)CCC(O)C2 (stereo not shown) [Compound 23, (3,5-dibromo-4-hydroxyphenyl)(2-ethyl-7-hydroxy-5,6,7,8-tetrahydroimidazo[1,2-a]pyridine-3-yl)methanone]
47.6 ± 4.12% | very good inhibitory effects | CCc1nc2n(c1C(=O)c1cc(Br)c(O)c(Br)c1)CCC(OC)C2 (stereo not shown) [Compound 25, (3,5-dibromo-4-hydroxyphenyl)-(2-ethyl-7-methoxy-5,6,7,8-tetrahydroimidazo[1,2-a]pyridin-3-yl)methanone]
43.4 ± 2.4% | – | CCc1nn2c(c1C(=O)c1cc(Br)c(O)c(Br)c1)CCCC2 [Compound 32]
46.2 ± 6.18% | very good inhibitory effects | CCn1nc2c(c1C(=O)c1cc(Br)c(O)c(Br)c1)CCCC2 [Compound 41, (3,5-dibromo-4-hydroxyphenyl)(2-ethyl-4,5,6,7-tetrahydro-2H-indazol-3-yl)methanone]
47.6 ± 3.08% | very good inhibitory effects | CCc1nc2n(c1C(O)c1cc(Br)c(O)c(Br)c1)CCCC2 (stereo not shown) [Compound 42, 2,6-dibromo-4-[(2-ethyl-5,6,7,8-tetrahydroimidazo[1,2-a]-pyridin-3-yl)hydroxymethyl]phenol]
53.2 ± 9.36% | very good inhibitory effects | CCc1nc2n(c1C(=O)c1cc(Br)c(O)c(Br)c1)CC(C)CC2 (stereo not shown) [Compound 43, (3,5-dibromo-4-hydroxyphenyl)(2-ethyl-6-methyl-5,6,7,8-tetrahydroimidazo[1,2-a]pyridin-3-yl)methanone]
46.1 ± 4.91% | very good inhibitory effects | CCc1nc2n(c1C(=O)c1cc(C)c(O)c(Br)c1)CCCC2 [Compound 48, (3-bromo-4-hydroxy-5-methylphenyl)(2-ethyl-5,6,7,8-tetrahydroimidazo[1,2-a]pyridin-3-yl)methanone]
38.6 ± 6.3% | – | CCn1nc2c(c1C(=O)c1cc(Br)c(O)c(Br)c1)COCC2 [Compound 58]
42.3 ± 2.6% | – | CCc1nc2n(c1C(O)c1cc(Br)c(O)c(C#N)c1)CCCC2 (stereo not shown) [Compound 63, 3-bromo-5-((2-ethyl-5,6,7,8-tetrahydroimidazo[1,2-a]pyridin-3-yl)hydroxymethyl)-2-hydroxyl benzonitrile]
27.6 ± 2.89% | – | O=C(O)CSc1nnc(Br)n1-c1ccc(C2CC2)c2ccccc12 [Zurampic, Lesinurad, reference compound]
